One block for each molecule: values may come before it.
Assays:
[1] = Riboflavin 5-phosphate sodium salt degradation under 450 nm LED with or without sodium ascorbate; type: physicochemical
Experimental: Stock solutions of Riboflavin5-phosphate sodium salt were created by adding 2.2 mg of granulated Riboflavin 5-phosphate sodium salt Riboflavin 5-phosphate sodium salt into a 10 mL volumetric flask with a 95% H2O: 5% ethanol to give a concentration of 0.46 mM. Adding 1 mL of the stock solution to another 10 mL was used to create a 46 μM solution. Adding 0.5 mL to a 25 mL volumetric flask gives a concentration of 9 μM.
Stock solutions of sodium ascorbate were created by adding 9.1 mg of granulated sodium ascorbate into a 10 mL volumetric flask with a 95% H2O: 5% ethanol to give a concentration of 4.6 mM. Adding 0.1 mL of the stock solution to another 10 mL was used to create a 46 μM solution. Adding 0.05 mL to a 25 mL volumetric flask gives a concentration of −9 μM, which could be multiplied to give the number of equivalents needed for each study.
For some riboflavin decomposition experiments a home-built 450 nm LED was used to irradiate samples. The quartz cuvette was placed 11.5 cm away from the light source and the measured intensity was 1750 mW/m^2.
A JASCO V-750 spectrophotometer (from JASCO Easton, Maryland, USA) was used for recording UV-Vis spectra. Quartz cuvettes were used for sample irradiations as they have an optical window that allows for spectra to be collected as low as 200 nm. IgorPro8 software was used for plotting and processing the data.
Fractional RF Absorbance is the absorbance signal at 446 nm measured at an irradiation time divided by the absorbance signal at 446 nm at t=0. The concentration of RF was held constant at 46 μM, denoted by “1” and the concentration of sodium ascorbate (SA) was varied in multiples of 46 μM, denoted by “1”, “5”, “10”, “50” (i.e. 46 μM, 230 μM, 460 μM, and 2.3 mM).
To test the depletion of Riboflavin 5-phosphate sodium salt (RF) in presence of sodium ascorbate, experiments were run in triplicate using a 450 nm LED with a measured power of 1750 mW/m2. […]

[2] = Thioxanthone depletion in solution under 365 nm irradiation (UV-Vis); type: physicochemical
Experimental: Solutions of photosensitizer (9-10 μM, 1 eq), […] (9-50 μM, 1-5 eq) and singlet oxygen quenching molecules (1-1000 equivalents) were prepared in a 10 mL volumetric flask either. Solvents for these studies were either 95:5 DI H2O:Ethanol or pure ethanol. A starting UV-Vis spectrum was obtained as a baseline. Solutions were irradiated in a quartz cuvette using appropriate LED's at a measured distance to ensure reproducible results. Spectra were collected at intervals of 1 min, 5 min, 15 minutes, 30 minutes, and every 15 minutes until the […] was depleted. In cases where nitrosoaniline absorption signals were quenched faster, the spectra were collected as smaller intervals typically been 1-5 minutes.
Stock solutions of thioxanthone were created by adding […] of granulated thioxanthone into a 10 mL volumetric flask with pure ethanol to give a concentration of 2.3 mM. Adding 0.1 mL of the stock solution to another 10 mL was used to create a 23 μM solution. Adding 0.1 mL to a 25 mL volumetric flask gives a concentration of −9 μM.
Stock solutions of imidazole were created by adding […] of granulated imidazole into a 10 mL volumetric flask with a 95% H2O: 5% ethanol or pure ethanol to give a concentration of […]. […]
Some thioxanthone decomposition experiments were performed by using a home-built 365 nm LED. […] The light intensity was measured to be roughly 2000 mW/m^2 from each LED. […]

[3] = in methanol solutions; cited from earlier work

loss of absorbance signal at 446 nm ([1]; RF 46 μM by itself, 450 nm LED 1750 mW/m2, after 30 minutes of irradiation): roughly 50%
loss of absorbance signal at 446 nm ([1]; RF 46 μM with 5× sodium ascorbate (230 μM), 450 nm LED, in about 10 minutes): roughly 50%
loss of absorbance signal at 446 nm ([1]; RF 46 μM with 10× sodium ascorbate (460 μM), 450 nm LED, in about 10 minutes): roughly 50%
Structure (SMILES): Cc1cc2nc3c(=O)[nH]c(=O)nc-3n(C[C@H](O)[C@H](O)[C@H](O)COP(=O)([O-])O)c2cc1C.[Na+] [Riboflavin 5-phosphate sodium salt]

depletion of thioxanthone ([2]; thioxanthone 23 μM in ethanol, 365 nm irradiation): complete after two hours of irradiation
Structure (SMILES): O=c1c2ccccc2sc2ccccc12 [thioxanthone, reference compound]
triplet quantum yield [3]: 0.56

Structure (SMILES): c1c[nH]cn1 [imidazole]
effect of added imidazole on rate of thioxanthone degradation ([2]; thioxanthone 23 μM, imidazole 23 μM to 230 μM, 365 nm): increases the rate of thioxanthone degradation
